According to ChEMBL document CHEMBL3259765, “ProTides of N-(3-(5-(2'-deoxyuridine))prop-2-ynyl)octanamide as potential anti-tubercular and anti-viral agents” (Bioorg Med Chem, 2014):
In brackets after ≈: the same amount, converted by molar mass.

What follows are compounds tested on Mycobacterium tuberculosis variant bovis BCG (assay: Antibacterial activity against Mycobacterium bovis BCG ATCC 35734 up to 2 weeks by HT-SPOTi assay). Conditions: ATCC 35734, 336 h.
Type: functional

Question: How did the MIC turn out when CCCCCCCC(=O)NCC#Cc1cn([C@H]2C[C@H](O)[C@@H](COP(=O)(N[C@@H](C)C(=O)OCc3ccccc3)Oc3cccc4ccccc34)O2)c(=O)[nH]c1=O (stereo partly drawn) was run?
Answer: The MIC was 250 µg/mL (≈ 323 µM).

Question: For CCCCCCCC(=O)NCC#Cc1cn([C@H]2C[C@H](O)[C@@H](COP(=O)(N[C@@H](C)C(=O)OCC)Oc3ccccc3)O2)c(=O)[nH]c1=O (stereo partly drawn), which MIC is on record?
Answer: The MIC was 250 µg/mL (≈ 377 µM).

Question: Which MIC does the source give for CCCCCCCC(=O)NCC#Cc1cn([C@H]2C[C@H](O)[C@@H](COP(=O)(N[C@H](C(=O)OCc3ccccc3)C(C)C)Oc3ccccc3)O2)c(=O)[nH]c1=O (stereo partly drawn) here?
Answer: The MIC was 125 µg/mL (≈ 166 µM).

Question: Which MIC does the source give for CCCCCCCC(=O)NCC#Cc1cn([C@H]2C[C@H](O)[C@@H](COP(=O)(N[C@H](C)C(=O)OCc3ccccc3)Oc3ccccc3)O2)c(=O)[nH]c1=O (stereo partly drawn) here?
Answer: Its MIC is 62.5 µg/mL (≈ 86.2 µM).

Question: How did the MIC turn out when CCCCCCCC(=O)NCC#Cc1cn([C@H]2C[C@H](O)[C@@H](COP(=O)(N[C@@H](C)C(=O)OC)Oc3cccc4ccccc34)O2)c(=O)[nH]c1=O (stereo partly drawn) was run?
Answer: Its MIC is 62.5 µg/mL (≈ 89.5 µM).

Question: For CCCCCCCC(=O)NCC#Cc1cn([C@H]2C[C@H](O)[C@@H](COP(=O)(NCC(=O)OCc3ccccc3)Oc3ccccc3)O2)c(=O)[nH]c1=O (stereo partly drawn), which MIC is on record?
Answer: The MIC was over 250 µg/mL.

Question: For CCCCCCCC(=O)NCC#Cc1cn([C@H]2C[C@H](O)[C@@H](COP(=O)(N[C@@H](C)C(=O)OC)Oc3ccccc3)O2)c(=O)[nH]c1=O (stereo partly drawn), which MIC is on record?
Answer: Its MIC is over 250 µg/mL.

Question: For CCCCCCCC(=O)NCC#Cc1cn([C@H]2C[C@H](O)[C@@H](COP(=O)(N[C@@H](C)C(=O)OCC(C)C)Oc3cccc4ccccc34)O2)c(=O)[nH]c1=O (stereo partly drawn), which MIC is on record?
Answer: The MIC was 125 µg/mL (≈ 169 µM).

Question: With CCCCCCCC(=O)NCC#Cc1cn([C@H]2C[C@H](O)[C@@H](COP(=O)(N[C@@H](C)C(=O)OCCC)Oc3ccccc3)O2)c(=O)[nH]c1=O (stereo partly drawn) as the compound, how does the MIC read?
Answer: The MIC was 125 µg/mL (≈ 185 µM).

Question: Which MIC does the source give for CCCCCCCC(=O)NCC#Cc1cn([C@H]2C[C@H](O)[C@@H](CO)O2)c(=O)[nH]c1=O here?
Answer: The MIC was over 250 µg/mL.

Question: How did the MIC turn out when CCCCCCCC(=O)NCC#Cc1cn([C@H]2C[C@H](O)[C@@H](COP(=O)(N[C@@H](C)C(=O)OCC)Oc3cccc4ccccc34)O2)c(=O)[nH]c1=O (stereo partly drawn) was run?
Answer: The MIC was 125 µg/mL (≈ 175 µM).

Question: With CCCCCCCC(=O)NCC#Cc1cn([C@H]2C[C@H](O)[C@@H](COP(=O)(N[C@@H](C)C(=O)OCc3ccccc3)Oc3ccccc3)O2)c(=O)[nH]c1=O (stereo partly drawn) as the compound, how does the MIC read?
Answer: The MIC was 125 µg/mL (≈ 172 µM).

Question: Which MIC does the source give for CCCCCCCC(=O)NCC#Cc1cn([C@H]2C[C@H](O)[C@@H](COP(=O)(NC(C)(C)C(=O)OCc3ccccc3)Oc3ccccc3)O2)c(=O)[nH]c1=O (stereo partly drawn) here?
Answer: Its MIC is 125 µg/mL (≈ 169 µM).
